{"source": "patent US12636305B2", "about": "“Composition and method of applying same to increase survival of fish following catch-and-release situations” (Dutch Creek Nymphing, LLC, priority 2022, dated 2026)", "tested_on": "Zebrafish, Danio rerio", "assay": "Zebrafish swim exhaustion test (vessel plunger model)", "format": "in vivo", "parameters": "Immediate recovery 20 min later, % Control (change from the control treatment as a percentage of the control treatment): concentration or dose not given beside the values", "conditions": "for Immediate recovery 20 min later, % Control (change from the control treatment as a percentage of the control treatment) / Immediate recovery 20 min later, Average: 20 minutes after treatment; for Immediate recovery 20 min later, % Control (change from the control treatment as a percentage of the control treatment): versus water control; for Immediate recovery 20 min later, Average: average of 8 fish; for Immediate recovery 20 min later, Average / Immediate recovery 20 min later (water vortex revolutions per minute when the fish failed to maintain swimming in place): post exhaustion; for Immediate recovery 20 min later (water vortex revolutions per minute when the fish failed to maintain swimming in place): individual fish (8 per treatment), 20 minutes after application of the treatment", "description": "This study utilizes a well-recognized vessel plunger model system to determine fish exhaustion during maximal swim performance trials (Usui T, Noble […]. The French press: a repeatable and high-throughput approach to exercising zebrafish (Danio rerio). […] In brief, zebrafish is placed in the top compartment above plunger and evaluated for its ability to swim against circular water currents created by a rotating magnetic stir bar positioned below the plunger. […] Next, the fish is brought to the water surface with the aid of a plunger and the composition is administered to the fish using one of the possible methods of administration. The fish is lowered back into the top compartment, and the individual maximum swimming speed is determined again (post-exhaustion value). This experimental setup allows one to determine the highest tolerated continuous swimming speed associated with control, exhaustion and recovery conditions that models catching, fighting, landing, treating, and releasing fish. […] The experimental methodology was substantially similar to the methods discussed in Usui, et al. (2018). […] Each treatment was administered to eight Zebrafish (n=104 total fish). […] Initial swim strength was measured prior to exhaustion of the fish and subsequent administration of the selected treatment and therefore serves as a baseline. […] After the initial swim strength test, the fish swam to exhaustion (as defined in Usui, et al. […] As anticipated by the Applicant, even post-treatment the fish became exhausted at a lower rpm, but there were significant differences in when each treatment group began to tire.", "note": "Several values for one entry are separate records, joined by “and”; a condition that tells them apart may be missing. Identical values can stand only once.", "data": [{"compound": "C/C=C/C=C/C(=O)[O-].[K+]", "note": "[Potassium sorbate, potassium sorbate]", "values": [{"measurement": "Immediate recovery 20 min later, % Control (change from the control treatment as a percentage of the control treatment)", "result": 5, "unit": "%"}, {"measurement": "Immediate recovery 20 min later, Average", "result": 433, "unit": "rpm"}, {"measurement": "Immediate recovery 20 min later (water vortex revolutions per minute when the fish failed to maintain swimming in place)", "result": "380 rpm and 420 rpm and 440 rpm and 460 rpm (2×) and 390 rpm and 500 rpm and 410 rpm"}]}, {"compound": "O=C([O-])[O-].O=C([O-])[O-].OO.OO.OO.[Na+].[Na+].[Na+].[Na+]", "note": "[Sodium percarbonate, sodium percarbonate]", "values": [{"measurement": "Immediate recovery 20 min later, % Control (change from the control treatment as a percentage of the control treatment)", "result": 24, "unit": "%"}, {"measurement": "Immediate recovery 20 min later, Average", "result": 514, "unit": "rpm"}, {"measurement": "Immediate recovery 20 min later (water vortex revolutions per minute when the fish failed to maintain swimming in place)", "result": "540 rpm (2×) and 500 rpm and 590 rpm and 530 rpm and 430 rpm and 520 rpm and 460 rpm"}]}, {"compound": "O=C(O)CN(CCN(CC(=O)O)CC(=O)O)CC(=O)O", "note": "[EDTA, ethylenediaminetetraacetic acid]", "values": [{"measurement": "Immediate recovery 20 min later, % Control (change from the control treatment as a percentage of the control treatment)", "result": 8, "unit": "%"}, {"measurement": "Immediate recovery 20 min later, Average", "result": 446, "unit": "rpm"}, {"measurement": "Immediate recovery 20 min later (water vortex revolutions per minute when the fish failed to maintain swimming in place)", "result": "460 rpm (3×) and 430 rpm and 410 rpm (2×) and 420 rpm and 520 rpm"}]}, {"compound": "CC(C)C[C@H](N)C(=O)O", "note": "[Leucine, leucine]", "values": [{"measurement": "Immediate recovery 20 min later, % Control (change from the control treatment as a percentage of the control treatment)", "result": 10, "unit": "%"}, {"measurement": "Immediate recovery 20 min later, Average", "result": 455, "unit": "rpm"}, {"measurement": "Immediate recovery 20 min later (water vortex revolutions per minute when the fish failed to maintain swimming in place)", "result": "460 rpm and 400 rpm and 470 rpm (2×) and 510 rpm and 490 rpm and 390 rpm and 450 rpm"}]}, {"compound": "salt", "values": [{"measurement": "Immediate recovery 20 min later, % Control (change from the control treatment as a percentage of the control treatment)", "result": 14, "unit": "%"}, {"measurement": "Immediate recovery 20 min later, Average", "result": 471, "unit": "rpm"}, {"measurement": "Immediate recovery 20 min later (water vortex revolutions per minute when the fish failed to maintain swimming in place)", "result": "410 rpm and 490 rpm (2×) and 510 rpm (2×) and 480 rpm (2×) and 400 rpm"}]}, {"compound": "CC(=O)C(=O)O", "note": "[Pyruvate, pyruvate]", "values": [{"measurement": "Immediate recovery 20 min later, % Control (change from the control treatment as a percentage of the control treatment)", "result": 9, "unit": "%"}, {"measurement": "Immediate recovery 20 min later, Average", "result": 451, "unit": "rpm"}, {"measurement": "Immediate recovery 20 min later (water vortex revolutions per minute when the fish failed to maintain swimming in place)", "result": "420 rpm (2×) and 430 rpm and 450 rpm (2×) and 510 rpm and 520 rpm and 410 rpm"}]}, {"compound": "N=C(N)NCCC[C@H](N)C(=O)O", "note": "[Arginine, arginine]", "values": [{"measurement": "Immediate recovery 20 min later, % Control (change from the control treatment as a percentage of the control treatment)", "result": 17, "unit": "%"}, {"measurement": "Immediate recovery 20 min later, Average", "result": 484, "unit": "rpm"}, {"measurement": "Immediate recovery 20 min later (water vortex revolutions per minute when the fish failed to maintain swimming in place)", "result": "520 rpm (2×) and 510 rpm and 550 rpm and 450 rpm and 580 rpm and 460 rpm and 280 rpm"}]}]}
